# Assay results published in publication PMC9502870.
# Experiment: Intramolecular Nicholas reaction: C-O or C-N bond formation between OH/NHR nucleophile and Co2(CO)6-stabilised propargyl cation (from propargylic OMe), BF3·Et2O 1.3-8 equiv, 0 °C to rt
# Conditions: the molecule shown is the open-chain precursor, 10-membered ring, DCM, 1.0 mM, 25.0 °C
smiles,measurement,setting,value
COCC#Cc1sc2ccccc2c1C#CCCNCc1ccccc1 [17a -> 18 (BF3·Et2O)],"ring closure, isolated yield",20.0 h,4%
C#CCCCC(=O)Nc1ccc(S(=O)(=O)NCCC#Cc2c(C#CCOC)sc3ccccc23)cc1 [12c -> 13b],"ring closure, isolated yield",1.0 h,63%
COCC#Cc1sc2ccccc2c1C#CCCNC(=O)c1ccccc1 [17b (no macrocycle; pyrroline 19 formed)],"ring closure, isolated yield",2.0 h,0%
COCC#Cc1sc2ccccc2c1C#CCC(O)CC(=O)OC (stereo not shown) [4 -> 5],"ring closure, isolated yield",1.0 h,51%
COCC#Cc1sc2ccccc2c1C#CCCNS(=O)(=O)c1ccc(C)cc1 [NHTs Co-complex -> 13c (ref 42)],"ring closure, isolated yield",,76%
COCC#Cc1sc2ccccc2c1C#CCCNS(=O)(=O)c1ccccc1[N+](=O)[O-] [12a -> 13a],"ring closure, isolated yield",1.0 h,46%
"COCC#Cc1sc2ccccc2c1C#CCCNS(=O)(=O)c1ccc(N)cc1 [12b (free NH2, no cyclization)]","ring closure, isolated yield",,0%
